Laboratory results: article PMC10545732, “Structure-based drug discovery of a corticotropin-releasing hormone receptor 1 antagonist using an X-ray free-electron laser” (Experimental & Molecular Medicine, 2023)
Entries after “also recorded” stand apart in the source; their conditions may differ.

Tests used:
[1] = In vitro BBB permeability assay; type: in vitro ADME, human; details: human; 10 μM apical, 12-h incubation, hCMEC/D3 monolayer; read-out: permeability coefficient
Method: Human cerebral microvascular endothelial cells (hCMECs/D3, SCC066; Sigma-Aldrich) were used to assess the permeability of CRF1R antagonists across the BBB. hCMECs were seeded on Falcon^TM cell culture inserts (08-770, Fisher Scientific) with 0.4 μm pore sizes precoated with collagen type I from rat tails (354236, Corning) at a density of 50,000 cells/mL in endothelial cell growth medium-2 (EGM-2, CC-3162; Lonza). The medium was changed with EGM-2 every three to four days for proliferation and with EGM-2 containing 2.5% human serum (SLBX6020, Sigma-Aldrich) for differentiation. Cell culture inserts were transferred into 24-well plates containing 700 μL of EGM-2 in each well (basolateral compartment) for the permeability assay. The medium in the inserts (apical compartment) was then replaced with 300 μL EGM-2 containing 10 μM BMK-C203 or BMK-C205. Apical and basolateral compartments were collected after a 12-h incubation at 37 °C, and drug concentrations were measured using HPLC. For sample preparation, 50 μL of the sample was mixed with 10 μL of an internal standard solution (d4-cortisol). Subsequently, 50 μL of acetonitrile was added, and the mixture was centrifuged at 16,000×g for 10 min for protein precipitation. The supernatants were used for LC‒MS analysis with a triple quadrupole mass spectrometer coupled with HPLC using a C18 reversed-phase column. The concentration of the antagonists was determined using a calibration curve. The permeability coefficient (P) was calculated according to Pardridge et al.[34]. The permeability-surface area product (PS, in cm^3/s) was divided by the filter surface area A (in cm^2) using Eq. (1) as follows:1 Pcm/s=Vd×△Ma/A×[…]×△t where Vd is the volume in the donor compartment in cm^3, ΔMa is the total amount of the compound in the […] compartment after t seconds, Md is the donor amount, Δt is the incubation time, and A is the filter area in cm^2.

CORT serum levels = assay: Serum CORT level after TST (LC-MS); type: in vivo, mice; details: 30 mg/kg orally for 3 days, immediately after TST
Method: The mice were anesthetized via intraperitoneal injections of 2,2,2-tribromoethanol (300 mg/kg, Sigma-Aldrich) immediately after the TST and before blood from the heart was sampled. Blood samples were collected in plastic tubes and incubated at room temperature for at least 2 h. The sera were extracted after centrifugation at 13,000×g for 10 min at 4 °C. CORT levels were determined via LC‒MS analysis. Serum (10 µL) was mixed with 20 μL of an internal standard solution (d4-cortisol) to prepare the samples. Subsequently, 100 μL of acetonitrile was added, and the mixture was centrifuged at 16,000×g for 10 min for protein precipitation. The supernatants (60 μL) were transferred into an autosampler vial, and 30 μL of water was added for efficient separation via high-performance liquid chromatography (HPLC). LC‒MS was performed with a triple quadrupole mass spectrometer coupled with HPLC using a C18 reversed-phase column. CORT levels were determined using a calibration curve constructed using CORT-spiked mouse serum. Serum samples (20 μL) were analyzed using a commercially available ELISA kit for ACTH (ab263880, Abcam) to measure ACTH serum levels.

[2] = Microsomal stability assay, human liver microsomes; type: in vitro ADME; details: for Liver microsomal stability, Human (percentage remaining after 30 min): 1 μM, n = 3; for metabolic stability improved by: human and rat liver microsomes, 30 min
Method: LC‒MS/MS was performed on a TSQ Vantage (Thermo, USA) coupled with a Nexera XR LC system (Shimadzu, Japan)[32]. The separation was performed on a Kinetex C18 column (2.1 × 100 mm, 2.6 µm, Phenomenex, USA) using a mobile phase of 0.1% formic acid and acetonitrile containing 0.1% formic acid. A gradient program was used for elution at a flow rate of 0.3 mL/min. The data were acquired using multiple-reaction monitoring (MRM) in positive mode.

[3] = Microsomal stability assay, rat liver microsomes; type: in vitro ADME; details: 1 μM, n = 3
Method: The incubation mixtures consisted of 0.5 mg/mL human (Corning, #452117) and rat liver microsomes (Corning, #452701), 0.1 M phosphate buffer (pH 7.4), NADPH regeneration system, and substrates (CRF1R antagonist compounds, 1 µM) in a total volume of 100 μL. […] LC‒MS/MS was performed on a TSQ Vantage (Thermo, USA) coupled with a Nexera XR LC system (Shimadzu, Japan)[32]. The separation was performed on a Kinetex C18 column (2.1 × 100 mm, 2.6 µm, Phenomenex, USA) using a mobile phase of 0.1% formic acid and acetonitrile containing 0.1% formic acid. A gradient program was used for elution at a flow rate of 0.3 mL/min. The data were acquired using multiple-reaction monitoring (MRM) in positive mode. Detection of the ions was performed by monitoring the m/z transition of 494.1 → 336.1 for BMK-I-152, 598.1 → 233.2 for BMK-C203, and 488.1 → 434.1 for BMK-C205.

C57BL/6J mice [4] = assay: Open field test (OFT); type: in vivo; details: 30 mg/kg orally for 3 days, 1 h open field
Method: (§1) C57BL/6J mice (male, 9–10 weeks old) were used for the behavioral tests. All mice were maintained under a 12:12-h light–dark cycle (lights on at 7:00 A.M.) with access to food and water ad libitum. Animal care and handling were performed according to guidelines by the Institutional Animal Care and Use Committee of Yonsei University (Seoul, Korea). Antalarmin, BMK-C203, and BMK-C205 were dissolved in peceol: TPGS: PEG400 (vehicle) (70%:20%:10%, respectively) and administered orally at a dose of 30 mg/kg for 3 days at 24-h intervals. All behavioral tests were conducted 2 h after the third drug was administered during light periods of the circadian cycle. TSTs were performed to verify the effect of CRF1R antagonists on depressive-like behavior. Each mouse was suspended by its tail on a bar 30 cm above the ground for 6 min using adhesive tape. Their movements were recorded by a camera and analyzed using the same parameters via EthoVision XT 8.5 software (Noldus Technologies). Immobility times during the last 4 min of the task were measured. Each mouse was placed in an open field (40 cm × 40 cm × 40 cm chamber) for 1 h to conduct an open field test (OFT) and test locomotion. Their locomotion was recorded and analyzed using EthoVision XT 8.5.

CYP3A4 = CYP3A4 (Homo sapiens, UniProt P08684); assay: CYP inhibition assay CYP3A4 (midazolam 1'-hydroxylase); details: 10 μM, human liver microsomes, n = 3
Method: (§2) Phenacetin O-demethylase, diclofenac 4-hydroxylase, S-mephenytoin 4-hydroxylase, dextromethorphan O-demethylase, and midazolam 1’-hydroxylase activities were determined as probe activities for CYP1A2, CYP2C9, CYP2C19, CYP2D6, and CYP3A4, respectively, using cocktail incubation. […] The cocktail incubation mixtures consisted of 0.25 mg/mL human liver microsomes, 0.1 M phosphate buffer (pH 7.4), an NADPH regeneration system, and inhibitors (CRF1R antagonist compounds, 10 µM) in a total volume of 100 μL. The final volume of the organic solvents in the incubation mixture was 1% (v/v). […] All incubations were performed in triplicate, and the mean values were used for analysis. The samples were then centrifuged at 15,000 rpm for 5 min at 4 °C. […] The CYP-mediated activities in the presence of inhibitors were expressed as percentages of the corresponding control values.

C57BL/6J mice [5] = assay: Tail suspension test (TST); type: in vivo; details: 30 mg/kg orally for 3 days, test 2 h after third dose, last 4 min of 6 min
Method: as §1

CYP2C9 = target: T1, CYP2C9 (Homo sapiens, UniProt P11712); assay: CYP inhibition assay CYP2C9 (diclofenac 4-hydroxylase); type: in vitro ADME; details: 10 μM, human liver microsomes, n = 3
T1 construct: 0.25 mg/mL human liver microsomes; from tissue; host or cells: human liver microsomes
T1 sequence (P11712 whole entry): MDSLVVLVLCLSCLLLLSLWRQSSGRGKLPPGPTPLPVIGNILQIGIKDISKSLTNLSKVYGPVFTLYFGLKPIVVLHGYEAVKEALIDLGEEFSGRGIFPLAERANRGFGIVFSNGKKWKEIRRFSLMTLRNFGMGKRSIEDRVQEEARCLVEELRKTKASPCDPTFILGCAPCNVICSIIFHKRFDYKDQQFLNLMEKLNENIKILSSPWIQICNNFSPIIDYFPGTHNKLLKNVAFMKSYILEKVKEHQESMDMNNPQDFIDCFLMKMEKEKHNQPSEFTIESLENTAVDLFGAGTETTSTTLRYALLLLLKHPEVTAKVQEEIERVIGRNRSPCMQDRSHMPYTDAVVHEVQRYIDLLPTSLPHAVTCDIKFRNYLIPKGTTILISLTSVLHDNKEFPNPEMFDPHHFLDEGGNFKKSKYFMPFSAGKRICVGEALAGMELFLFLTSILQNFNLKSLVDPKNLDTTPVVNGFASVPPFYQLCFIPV
Method: as §2

Sequence of CYP3A4 (P08684 whole entry): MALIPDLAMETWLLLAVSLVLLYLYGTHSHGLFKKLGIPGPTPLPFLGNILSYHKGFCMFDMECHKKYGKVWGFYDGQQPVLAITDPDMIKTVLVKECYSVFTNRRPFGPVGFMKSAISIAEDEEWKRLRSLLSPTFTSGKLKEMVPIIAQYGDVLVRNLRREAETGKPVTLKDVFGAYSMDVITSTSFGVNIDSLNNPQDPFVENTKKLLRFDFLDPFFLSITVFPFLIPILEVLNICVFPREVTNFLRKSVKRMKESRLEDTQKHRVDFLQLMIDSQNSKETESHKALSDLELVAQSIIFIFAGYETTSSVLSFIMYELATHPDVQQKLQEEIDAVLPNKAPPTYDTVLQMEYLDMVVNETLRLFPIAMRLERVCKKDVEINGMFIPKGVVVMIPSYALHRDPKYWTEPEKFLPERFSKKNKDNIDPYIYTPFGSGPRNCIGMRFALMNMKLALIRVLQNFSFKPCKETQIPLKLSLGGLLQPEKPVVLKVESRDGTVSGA

Papp at 12 h, 10 µM [1]	Liver microsomal stability, Human (percentage remaining after 30 min) [2]	metabolic stability improved by [2]	Liver microsomal stability, Rat (percentage remaining after 30 min) [3]	SMILES	serum CORT level versus vehicle (CORT serum levels)	OFT locomotion / overall moving distance (C57BL/6J mice [4])	CYP3A4, percentage of control activity (CYP3A4)	TST immobility time versus vehicle (C57BL/6J mice [5])	CYP2C9, percentage of control activity (CYP2C9)
0.0296 ×10⁻⁶ cm/s	88.3 ± 16.71%	more than 90%	97.1 ± 8.81%	COc1cc(Br)cc(OC)c1-c1c(C)nn2c(N(CCCC(F)(F)F)CCCC(F)(F)F)nc(C)nc12 [BMK-C203]	did not significantly affect	did not differ among groups	90.5 ± 2.9 percentage of control activity	did not significantly affect	94.9 ± 1.9 percentage of control activity
0.211 ×10⁻⁶ cm/s	88.0 ± 4.50%	more than 90%	89.4 ± 2.07%	CCCCN(CC1CC1)c1nc(C)nc2c(-c3c(OC)cc(Br)cc3OC)c(C)nn12 [BMK-C205]	decreased	did not differ among groups; also recorded: no differences	> 100 ± 6.2 percentage of control activity	significantly decreased; also recorded: more mobile than the vehicle group	89.8 ± 2.4 percentage of control activity
